Test results as given in publication PMC5216130, “Saturated palmitic acid induces myocardial inflammatory injuries through direct binding to TLR4 accessory protein MD2” (Nature Communications, 2017).
Blank lines part the entries; values can stand above or below the molecule they belong to.

How the values were obtained:
[1] = target: T1, MD2 (myeloid differentiation protein 2; rhMD2) (Homo sapiens, UniProt Q9Y6Y9); test: ForteBio Octet HTX (called SPR in the paper); format: binding
T1 construct: gene LY96; recombinant human MD2 (rhMD2)
T1 sequence (Q9Y6Y9 19-160): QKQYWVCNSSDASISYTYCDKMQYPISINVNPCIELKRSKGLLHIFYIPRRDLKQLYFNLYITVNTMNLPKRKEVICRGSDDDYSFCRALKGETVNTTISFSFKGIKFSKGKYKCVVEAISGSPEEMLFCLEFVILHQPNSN

[2] = target: T1, MD2 (myeloid differentiation protein 2; rhMD2); test: SPR (ProteOn XPR36); confirmed on ForteBio Octet HTX (KD=[…]) and by biotin-PA ELISA; format: binding

Kd ([1]; read-out: Kd): 35 µM
Structure (SMILES): CCCCCCCC/C=C\CCCCCCCC(=O)O [oleic acid]

Structure (SMILES): CCCCC/C=C\C/C=C\CCCCCCCC(=O)O [linoleic acid]
Kd [1]: 54 µM

Kd [2]: 31.6 µM
Structure (SMILES): CCCCCCCCCCCCCCCC(=O)O [PA, palmitic acid]
